How the values were obtained:
[1] = Stability under high temperature conditions judged from melting point; type: physicochemical; conditions: inferred from melting point 166.2° C. vs around 105° C. of known monohydrate
Description: (5) Measurement of Melting Point
The measurement was performed using Melting Point M-565 (manufactured by BUCHI) according to the instruction book.
In addition, the melting point of the crystal of NeuAc ammonium salt anhydrate is 166.2° C. and is higher than the melting point of around 105° C. of known NeuAc ammonium salt monohydrate salt.

[2] = Measurement of degree of solubility in water (HPLC of supernatant); type: physicochemical; conditions: FIG. 5; compared with crystal of known NeuAc dihydrate
Description: (2) Measurement of Degree of Solubility
A crystal of NeuAc ammonium salt anhydrate, or a crystal of known NeuAc dihydrate was added to water adjusted to the respective temperatures until each crystal remained undissolved and after keeping the solution for a sufficient time under stirring, the supernatant containing no crystal was collected, and the concentration of NeuAc therein was measured using the following HPLC conditions.
Guard column: Shodex SUGAR SH-G ϕ6.0×50 mm
Column: SUGAR SH1011 ϕ8.0×300 mm×2 columns in series
Column temperature: 60° C.
Buffer: an aqueous 0.005 mol/L sulfuric acid solution
Detector: UV detector (wavelength: 210 nm)
The degrees of solubility in water of the crystal of NeuAc ammonium salt anhydrate obtained above and a crystal of NeuAc dihydrate are illustrated in FIG. 5.

[3] = pH of aqueous solution of the crystal; type: physicochemical; conditions: aqueous solution at 100 g/L in terms of NeuAc ammonium salt
Description: As for the pH, an aqueous solution at 100 g/L in terms of NeuAc ammonium salt was measured.

[4] = Degree of coloration when stored in a closed system at 60° C. (transmittance at 430 nm); type: physicochemical; conditions: for Transmittance T % 430 nm: stored in closed system at 60° C., solution 100 g/L in terms of an anhydrate, 1 cm
Description: With respect to the crystal of NeuAc ammonium salt anhydrate and a crystal of known NeuAc dihydrate, the degree of coloration when stored in a closed system at 60° C. was compared, and the results are shown in Table 8. The degree of coloration is expressed by transmittance T % 430 nm=100×10^−A (A=Abs: 430 nm, 1 cm), which was obtained by dissolving each crystal at 100 g/L in terms of an anhydrate and performing measurement for the solution.

[5] = Weight change (moisture absorption) under an atmosphere of 25° C. and a humidity of 60%; type: physicochemical; conditions: humidity 60%; for weight increase due to moisture absorption: up to 24 h
Description: With respect to the crystal of NeuAc ammonium salt anhydrate and the noncrystalline amorphous NeuAc ammonium salt acquired in Reference Example 1, the weight change under an atmosphere of 25° C. and a humidity of 60% was compared, and the results are shown in Table 5.

[6] = normal temperature; cited from earlier work
[7] = cited from earlier work

CC(=O)N[C@H]1[C@H]([C@H](O)[C@H](O)CO)OC(O)(C(=O)O)C[C@@H]1O.N (stereo partly drawn) [Crystal of ammonium salt, ammonium N-acetylneuraminate anhydrate]
stability under high temperature conditions [1]: stable even under high temperature conditions | degree of solubility in water [2]: large degree of solubility compared with the degree of solubility of the crystal of known NeuAc dihydrate | pH ([3]; listed as Example 1): 7.07 | pH ([3]; listed as Example 2): 6.60 | pH ([3]; listed as Example 3): 6.39 | coloration during storage ([4]; closed system at 60° C., compared with crystal of known NeuAc dihydrate): extremely low | Transmittance T % 430 nm ([4]; 0 days): 99.73% | Transmittance T % 430 nm ([4]; 3 days): 98.87% | Transmittance T % 430 nm ([4]; 6 days): 98.49% | Rate of weight change ([5]; elapsed time 0 h): 0.00% | Rate of weight change ([5]; elapsed time 3 h): −0.08% | Rate of weight change ([5]; elapsed time 7 h): −0.10% | Rate of weight change ([5]; elapsed time 24 h): −0.06% | weight increase due to moisture absorption ([5]; listed as crystal of NeuAc ammonium salt anhydrate): a weight increase was not observed

CC(=O)N[C@H]1[C@H]([C@H](O)[C@H](O)CO)OC(O)(C(=O)O)C[C@@H]1O.N (stereo partly drawn) [Noncrystalline amorphous, NeuAc ammonium salt, reference compound]
Rate of weight change ([5]; elapsed time 3 h, ammonium salt): 6.58% | Rate of weight change ([5]; elapsed time 7 h, ammonium salt): 10.4% | Rate of weight change ([5]; elapsed time 24 h, ammonium salt): 13.5% | weight increase due to moisture absorption ([5]; listed as noncrystalline amorphous NeuAc ammonium salt, ammonium salt): marked weight increase due to moisture absorption | deliquescence ([5]; when 24 hours had passed): deliquesced

CC(=O)N[C@H]1[C@H]([C@H](O)[C@H](O)CO)OC(O)(C(=O)O)C[C@@H]1O (stereo partly drawn) [Dihydrate crystal, N-Acetylneuraminic acid, reference compound]
Transmittance T % 430 nm ([4]; 0 days): 100.1% | Transmittance T % 430 nm ([4]; 3 days): 73.26% | Transmittance T % 430 nm ([4]; 6 days): 50.46% | degree of solubility [6]: about 100 g/L | storage stability (discoloration of crystal and solution) [7]: gradually discolored to dark brown

Source: US10072038B2, “Crystal of ammonium N-acetylneuraminate anhydrate, and process for producing same” (KYOWA HAKKO BIO CO., LTD., priority 2015, dated 2018)
